This is an account of results in patent US10308605B2, “Proton pump inhibitors” (Takeda Pharmaceutical Company Limited, priority 2004, dated 2019).

Molecules are shown by their SMILES. Where a name gives a salt, the structure may show the parent alone.

proton, potassium-adenosine triphosphatase (H^+,K^+-ATPase), sequence (P19156 2-1034): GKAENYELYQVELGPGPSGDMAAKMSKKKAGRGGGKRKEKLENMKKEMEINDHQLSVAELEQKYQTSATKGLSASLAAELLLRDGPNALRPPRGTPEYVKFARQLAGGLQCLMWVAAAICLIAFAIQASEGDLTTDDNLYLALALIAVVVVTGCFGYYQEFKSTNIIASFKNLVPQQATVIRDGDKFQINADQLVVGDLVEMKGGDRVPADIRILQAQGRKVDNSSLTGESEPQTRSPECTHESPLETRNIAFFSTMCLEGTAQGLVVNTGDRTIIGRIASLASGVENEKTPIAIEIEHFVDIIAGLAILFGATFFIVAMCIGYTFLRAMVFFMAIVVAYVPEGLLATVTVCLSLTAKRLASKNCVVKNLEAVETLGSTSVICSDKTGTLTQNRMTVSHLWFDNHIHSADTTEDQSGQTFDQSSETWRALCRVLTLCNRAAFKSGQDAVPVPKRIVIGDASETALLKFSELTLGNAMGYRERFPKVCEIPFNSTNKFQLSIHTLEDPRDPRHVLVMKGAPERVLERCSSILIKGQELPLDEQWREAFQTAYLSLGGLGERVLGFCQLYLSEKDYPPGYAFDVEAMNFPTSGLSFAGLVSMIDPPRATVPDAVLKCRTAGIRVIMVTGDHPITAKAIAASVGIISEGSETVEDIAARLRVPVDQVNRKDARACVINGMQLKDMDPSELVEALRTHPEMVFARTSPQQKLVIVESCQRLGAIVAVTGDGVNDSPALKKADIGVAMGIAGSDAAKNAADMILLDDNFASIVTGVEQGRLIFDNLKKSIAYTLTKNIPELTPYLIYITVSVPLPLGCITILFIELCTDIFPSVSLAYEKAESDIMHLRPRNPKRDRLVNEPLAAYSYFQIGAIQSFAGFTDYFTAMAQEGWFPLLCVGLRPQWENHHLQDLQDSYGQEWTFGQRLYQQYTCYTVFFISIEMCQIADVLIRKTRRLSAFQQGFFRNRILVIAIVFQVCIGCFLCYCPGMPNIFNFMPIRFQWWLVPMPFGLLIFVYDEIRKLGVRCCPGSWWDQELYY
proton, potassium-adenosine triphosphatase (H^+,K^+-ATPase), sequence (P18434 whole entry partner): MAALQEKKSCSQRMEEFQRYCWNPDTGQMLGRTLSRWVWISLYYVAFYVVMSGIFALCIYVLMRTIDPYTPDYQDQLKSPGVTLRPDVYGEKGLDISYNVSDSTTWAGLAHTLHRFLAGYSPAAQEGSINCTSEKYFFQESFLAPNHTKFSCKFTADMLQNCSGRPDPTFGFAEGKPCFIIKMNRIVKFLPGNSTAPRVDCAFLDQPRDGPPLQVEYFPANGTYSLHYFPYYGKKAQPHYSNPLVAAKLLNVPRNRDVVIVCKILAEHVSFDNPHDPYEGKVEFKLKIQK

The target of one test is proton, potassium-adenosine triphosphatase (H^+,K^+-ATPase) (Sus scrofa (Pig), UniProt P19156). As to the kind of experiment: Proton potassium-adenosine triphosphatase (H+,K+-ATPase) inhibitory activity test. Type of test: biochemical. The conditions noted are these: swine gastric mucous membrane microsomal fraction, pH 6.5, 37° C.; read-out: H^+/K^+-ATPase inhibitory activity (IC50). As to the method:
Proton Potassium-adenosine Triphosphatase (H^+,K^+-ATPase) Inhibitory Activity Test
According to the method [Biochem. Biophys. Acta., 728, 31 (1983)] of Wallmark et al., a gastric mucous membrane microsomal fraction was prepared from the stomach of swine. First, the stomach was removed, washed with tap water, immersed in 3 mol/L brine, and the surface of the mucous membrane was wiped with a paper towel. The gastric mucous membrane was detached, chopped, and homogenized in a 0.25 mol/L saccharose solution (pH 6.8) containing 1 mmol/L EDTA and 10 mmol/L tris-hydrochloric acid using polytron (Kinematica). The obtained homogenate was centrifuged at 20,000×g for 30 min and the supernatant was centrifuged at 100,000×g for 90 min. The precipitate was suspended in 0.25 mol/L saccharose solution, superimposed on a 0.25 mol/L saccharose solution containing 7.5% Ficoll, and centrifuged at 100,000×g for 5 hr. The fraction containing the interface between the both layers was recovered, and centrifugally washed with 0.25 mol/L saccharose solution.
The obtained microsomal fraction was used as a proton, potassium-adenosine triphosphatase standard product.
To 40 μL of a 50 mmol/L HEPES-tris buffer (5 mmol/L magnesium chloride, 10 mmol/L potassium chloride, 10 μmol/L valinomycin, pH=6.5) containing 2.5 μg/mL (based on the protein concentration) of the enzyme standard product was added a test compound (5 μL) dissolved in a 10% aqueous dimethyl sulfoxide solution, and the mixture was incubated at 37° C. for 30 min. The enzyme reaction was started by adding 5 μL of a 2 mmol/L adenosine triphosphate tris salt solution (50 mmol/L HEPES-tris buffer (5 mmol/L magnesium chloride, pH 6.5)). The enzyme reaction was carried out at 37° C. for 20 min, and 15 μL of a malachite green solution (0.12% malachite green solution in sulfuric acid (2.5 mol/L), 7.5% ammonium molybdate and 11% Tween 20 were mixed at a ratio of 100:25:2) was added to quench the reaction. After allowing to stand at room temperature for 15 min, the resulting reaction product of inorganic phosphorus with malachite green was colorimetrically determined at a wavelength of 610 nm. In addition, the amount of the inorganic phosphoric acid in the reaction solution free of potassium chloride was measured in the same manner, which was subtracted from the inorganic phosphoric acid amount in the presence of potassium chloride to determine the proton, potassium-adenosine triphosphatase activity. The inhibitory rate (%) was determined from the activity value of the control and the activity values of various concentrations of the test compound, and the 50% inhibitory concentration (IC50) of the proton, potassium-adenosine triphosphatase was determined.
As to `CNCc1cc(-c2ccsc2)n(S(=O)(=O)c2ccccc2)c1` [Example 30, N-methyl-1-[1-(phenylsulfonyl)-5-(3-thienyl)-1H-pyrrol-3-yl]methanamine hydrochloride], the IC50 is 4.2 nM. With `CNCc1cc(-c2ccccc2)n(S(=O)(=O)c2ccsc2)c1` [Example 43, N-Methyl-1-[5-phenyl-1-(3-thienylsulfonyl)-1H-pyrrol-3-yl]methanamine hydrochloride], the IC50 was 51 nM. Same read-out and setting: to `CNCc1cc(-c2ccccc2)n(S(=O)(=O)c2cccc(S(C)(=O)=O)c2)c1` [Example 140, N-Methyl-1-(1-{[3-(methylsulfonyl)phenyl]sulfonyl}-5-phenyl-1H-pyrrol-3-yl)methanamine hydrochloride] belongs 78 nM.

`CNCc1cc(-c2ccccc2)n(S(=O)(=O)c2cc3ccccc3s2)c1` [Example 152, 1-[1-(1-Benzothien-2-ylsulfonyl)-5-phenyl-1H-pyrrol-3-yl]-N-methylmethanamine hydrochloride]: the IC50 turned out to be 33 nM.

With `CNCc1cc(-c2ccccc2F)n(S(=O)(=O)c2cccc(S(C)(=O)=O)c2)c1` [Example 161, 1-[5-(2-Fluorophenyl)-1-{[3-(methylsulfonyl)phenyl]sulfonyl}-1H-pyrrol-3-yl]-N-methylmethanamine hydrochloride], the IC50 was 62 nM. For `CNCc1cc(-c2ccccc2F)n(S(=O)(=O)c2ccccc2F)c1` [Example 165, 1-{5-(2-Fluorophenyl)-1-[(2-fluorophenyl)sulfonyl]-1H-pyrrol-3-yl}-N-methylmethanamine hydrochloride], the IC50 was 9 nM. Same read-out and setting: the figure for `CNCc1cc(-c2ccccc2)n(S(=O)(=O)c2cccc(C(=O)NC)c2)c1` [Example 204, N-Methyl-3-({4-[(methylamino)methyl]-2-phenyl-1H-pyrrol-1-yl}sulfonyl)benzamide hydrochloride] is 86 nM. Same read-out and setting: the figure for `CNCc1cc(-c2ccccc2C)n(S(=O)(=O)c2cccnc2)c1` [Example 220, N-Methyl-1-[5-(2-methylphenyl)-1-(pyridin-3-ylsulfonyl)-1H-pyrrol-3-yl]methanamine dihydrochloride] is 36 nM.

Still in this test, the particulars now being: swine gastric mucous membrane microsomal fraction, pH 6.5, 37° C.; read-out: IC50.
In the case of `CNCc1cc(-c2cccc(C)c2)n(S(=O)(=O)c2ccc(C)cc2)c1` [Example 7, N-Methyl-1-{5-(3-methylphenyl)-1-[(4-methylphenyl)sulfonyl]-1H-pyrrol-3-yl}methanamine hydrochloride], the IC50 is 91 nM. Regarding `CNCc1cc(-c2ccccc2)n(S(=O)(=O)c2ccc(F)cc2C)c1` [Example 11, 1-{1-[(4-Fluoro-2-methylphenyl)sulfonyl]-5-phenyl-1H-pyrrol-3-yl}-N-methylmethanamine hydrochloride], the IC50 is 51 nM. Same read-out and setting: to `CN(C)Cc1cc(-c2ccccc2)n(S(=O)(=O)c2ccc(C(F)(F)F)cc2)c1` [Example 12, N,N-Dimethyl-1-(5-phenyl-1-{[4-(trifluoromethyl)phenyl]sulfonyl}-1H-pyrrol-3-yl)methanamine hydrochloride] belongs 710 nM.
